“Also recorded” adds a separate entry of the source.
Experiments:
synthetic NS4A [1] = target: T1, synthetic NS4A (Hepatitis C virus genotype 1b, UniProt Q9WMX2); experiment: Competition assay with [3H] labeled azidoacylthiourea for NS4A binding; design: species or system HCV
T1 construct: The full length of NS4A (54 amino acids) is synthesized; made in house
Description: (§1) To determine whether acylthiourea compounds bind to NS4A, a photo-affinity labeling is carried out, in which an [^3H] labeled photo-reactive azidoacylthiourea, 1-(5-Azido-benzofuran-2-carbonyl)-3-(4-pentyloxy-3-trifluoromethyl-phenyl)-thiourea, is mixed with synthetic NS4A at various molar ratios. The mixture is incubated at 31° C. for one hour. Samples are then illuminated by a UV lamp (254 nm wavelength) at room temperature for 7 minutes. After denaturing with equal volume of Laemmli buffer containing 5% mercaptoethanol at 99° C. for 5 minutes, samples are separated on a 10-20% SDS-PAGE. After electrophoresis, the gel is fixed with 30% methanol—10% acetic acid overnight. Then the gel is treated with 3H enhancer solution (PerkinElmer) at room temperature for one hour, and subsequently with water for 30 minutes, and dried under vacuum.
To study the binding specificity of [^3H] labeled 1-(5-Azido-benzofuran-2-carbonyl)-3-(4-pentyloxy-3-trifluoromethyl-phenyl)-thiourea to synthetic NS4A, several structurally related compounds are used in the following competition assays. Non-labeled 1-(5-Azido-benzofuran-2-carbonyl)-3-(4-pentyloxy-3-trifluoromethyl-phenyl)-thiourea shares the same structure with [^3H] labeled 1-(5-Azido-benzofuran-2-carbonyl)-3-(4-pentyloxy-3-trifluoromethyl-phenyl)-thiourea. 1-(5-Azido-benzofuran-2-carbonyl)-3-(4-pentyloxy-3-trifluoromethyl-phenyl)-urea differs in structure from 1-(5-Azido-benzofuran-2-carbonyl)-3-(4-pentyloxy-3-trifluoromethyl-phenyl)-thiourea in that 1-(5-Azido-benzofuran-2-carbonyl)-3-(4-pentyloxy-3-trifluoromethyl-phenyl)-urea has a carbonyl group where 1-(5-Azido-benzofuran-2-carbonyl)-3-(4-pentyloxy-3-trifluoromethyl-phenyl)-thiourea has a thiocarbonyl group. […]

HCV replicon cells = experiment: HCV replicon assay (RNA dot blot or NPTII ELISA); type: cell-based
Description: Cells expressing the HCV replicon are seeded onto the internal wells of 96-well plates at a density of 7,000 cells per well. One day later, different dilutions of the test compounds are added to corresponding wells and the plates are incubated in a CO2 incubator for 72 hours. After treatment, the cells are lysed with 70 μl RLN buffer per well (50 mM Tris-HCl [pH8.0], 140 mM NaCl, 1.5 mM MgCl2, 0.5% Nonidet P-40, 1,000 units/mL RNAsin and 1 mM […]). The total lysate is transferred to a new U bottom 96-well plate and nuclei and cell debris are pelleted with a brief spin (300×g for 3 minutes). 50 μl of supernatant is removed from the well and loaded directly onto manifold wells equipped with Nylon membranes. HCV RNA is hybridized at 58° C. overnight using a labeled HCV RNA probe containing a negative strand sequence complement to the NS5B region. Hybridization buffer is composed of 50% formamide, 5×SSPE, 1% SDS, 5× Denhart's solution, and sheared denatured salmon sperm DNA. Following hybridization, the membrane is washed with washing buffer (0.1×SSC, 0.1% SDS) at room temperature for two hours, then at 65° C. for 30 minutes. The radioactivity in each well is counted on a Microbeta counter and EC50 is calculated based on cpm. Alternatively, HCV replicon cells are trypsinized for 5-10 minutes in a CO2 incubator. Then, cells are placed in a 15 mL tube, and are spun at 1000 rpm for 4 minutes and trypsin solution is removed. Cell pellets are washed once with PBS and spun 4 minutes at 1000 rpm.
Trypsinization and wash steps, supra, are conducted efficiently to minimize cell death. PBS is removed and cells are resuspended in 4 mL fresh PBS and cells are seeded at a dilution of 5000 cells per well to 96 well plates. Test compounds are diluted in 96 well U bottom plates with DMEM (high glucose) (BRL, Catalog #21063) supplemented with 10% FBS, L-glutamine, and non-essential amino acid. 100 uL of test compound is loaded into each well. […]
100 uL of development solution (TMB one-step substrate system) is added and plates are developed in the dark for 10 to 30 minutes. […] OD450 is measured. […]

synthetic NS4A [2] = target: T1, synthetic NS4A; experiment: Photo-affinity labeling; type: binding, HCV; settings: [3H] labeled compound, UV 254 nm, SDS-PAGE
Description: Experiments are undertaken to investigate the affinity and binding specificity of acylthiourea compounds to NS4A. The full length of NS4A (54 amino acids) is synthesized, and characterized with mass spectral analysis and HPLC profiling. An NS4A sample is then dissolved in 100% dimethylsulphoxide (DMSO) at a concentration of 2 μg/μl and subjected to a 10-20% SDS-PAGE with a reducing reagent. A 6 kDa protein band, consistent with the size of NS4A, is detected in the gel following a Coomassie blue staining. The NS4A identity of this band is further confirmed by a Western blot with monoclonal anti-NS4A antibody.
as §1, with “Then the gel is treated with 3H enhancer solution (PerkinElmer) at room temperature for one hour, and subsequently with water for 30 minutes, and dried under vacuum.” left out

NS3 protease domain = NS3 protease domain (Hepatitis C virus genotype 1b, UniProt Q9WMX2); experiment: Photo-affinity labeling; type: binding, HCV; settings: [3H] labeled compound; same molar ratio as NS4A (3.3 μM)
Sequence of NS3 protease domain (Q9WMX2 1027-1208): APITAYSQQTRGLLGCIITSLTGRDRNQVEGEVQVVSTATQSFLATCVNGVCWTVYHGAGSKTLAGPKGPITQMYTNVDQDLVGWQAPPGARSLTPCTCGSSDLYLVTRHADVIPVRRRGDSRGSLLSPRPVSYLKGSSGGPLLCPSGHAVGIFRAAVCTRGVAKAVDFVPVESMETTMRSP
Description: as §1
(§2) One band corresponds to NS4A monomer, which is also detectable with Coomassie blue staining (FIG. 3). […] Without being bound by any particular theory, it is believed that this band may be composed largely of polymer form or aggregates of NS4A. At the same time, full-length NS3 and NS3 protease domain is included in this binding assay.

full-length NS3 = full-length NS3 (Hepatitis C virus genotype 1b, UniProt Q9WMX2); experiment: Photo-affinity labeling; type: binding, HCV; settings: [3H] labeled compound; same molar ratio as NS4A (3.3 μM)
Sequence of full-length NS3 (Q9WMX2 1027-1657): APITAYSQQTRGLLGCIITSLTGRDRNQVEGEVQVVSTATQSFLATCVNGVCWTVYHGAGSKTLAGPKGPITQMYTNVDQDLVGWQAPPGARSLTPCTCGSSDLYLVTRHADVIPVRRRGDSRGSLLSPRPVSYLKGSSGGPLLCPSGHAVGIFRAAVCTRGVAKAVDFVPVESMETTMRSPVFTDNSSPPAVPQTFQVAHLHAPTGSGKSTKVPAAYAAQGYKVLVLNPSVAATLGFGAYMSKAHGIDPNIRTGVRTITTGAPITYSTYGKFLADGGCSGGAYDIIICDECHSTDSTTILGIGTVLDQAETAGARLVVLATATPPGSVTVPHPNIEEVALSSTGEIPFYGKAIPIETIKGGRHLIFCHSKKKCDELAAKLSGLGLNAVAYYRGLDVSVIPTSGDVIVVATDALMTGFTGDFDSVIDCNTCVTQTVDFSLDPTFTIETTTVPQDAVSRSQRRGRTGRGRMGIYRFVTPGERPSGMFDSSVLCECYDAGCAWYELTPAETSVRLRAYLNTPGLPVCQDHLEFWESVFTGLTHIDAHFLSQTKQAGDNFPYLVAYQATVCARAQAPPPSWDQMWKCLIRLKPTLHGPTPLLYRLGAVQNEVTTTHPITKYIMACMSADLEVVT
Description: as §1, §2

T1 sequence (Q9WMX2 1658-1711): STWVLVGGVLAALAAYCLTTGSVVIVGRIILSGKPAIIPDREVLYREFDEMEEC

Row | Compound | competition with [3H] labeled 1-(5-Azido-benzofuran-2-carbonyl)-3-(4-pentyloxy-3-trifluoromethyl-phenyl)-thiourea for NS4A binding (synthetic NS4A [1]) | anti-HCV activity in replicon cells (HCV replicon cells) | binding to synthetic NS4A (synthetic NS4A [2]) | binding to NS3 protease domain (NS3 protease domain) | binding to full-length NS3 (full-length NS3)
1 | CCCCCOc1ccc(NC(=O)NC(=O)c2cc3cc(N=[N+]=[N-])ccc3o2)cc1C(F)(F)F [1-(5-Azido-benzofuran-2-carbonyl)-3-(4-pentyloxy-3-trifluoromethyl-phenyl)-urea] | does not compete; also recorded: appears to abolish this competition capacity | does not exhibit any anti-HCV activity in replicon cells | – | – | –
2 | CCCCCOc1ccc(NC(=S)NC(=O)c2cccnc2)cc1C(F)(F)F [1-(4-Pentyloxy-3-trifluoromethyl-phenyl)-3-(pyridine-3-carbonyl)-thiourea] | effectively compete | exhibit anti-HCV activities in replicon cells | – | – | –
3 | CCCCCOc1ccc(NC(=S)NC(=O)c2cc3ccccc3o2)cc1C(F)(F)F [1-(Benzofuran-2-carbonyl)-3-(4-pentyloxy-3-trifluoromethyl-phenyl)-thiourea] | effectively compete | exhibit anti-HCV activities in replicon cells | – | – | –
4 | CCCCCOc1ccc(NC(=S)NC(=O)c2cc3cc(N=[N+]=[N-])ccc3o2)cc1C(F)(F)F [1-(5-Azido-benzofuran-2-carbonyl)-3-(4-pentyloxy-3-trifluoromethyl-phenyl)-thiourea] | – | – | binds to synthetic NS4A; also recorded: two radioactive bands are shown in the gel | only weak binding signals | only weak binding signals

From patent US20080207760A1, “Pharmaceutical Compositions For and Methods of Inhibiting Hcv” (priority 2005, published 2008)
